Results as given in US8143288B2, “Inhibitors of HCV replication” (priority 2005, dated 2012).

Each compound was assayed on HCV 1b-377-neo replicon cells (assay: HCV replicon FRET assay). Details: Hepatitis C virus; HCV replicon; read-out: Activity (EC50).
Type: cell-based

Row | Structure (SMILES) | EC50 [nM]
1 | CC(=O)N1CCC[C@H]1C(=O)Nc1ccc(/C=C/c2ccc(NC(=O)[C@@H]3CCCN3C(=O)c3ccccc3NCc3ccccc3)cc2)cc1 [Example 153] | 1000 to 10000
2 | Cc1nc(C(F)(F)F)ccc1C(=O)N1CCC[C@H]1C(=O)Nc1ccc(/C=C/c2ccc(NC(=O)[C@@H]3CCCN3C(=O)c3ccc(C(F)(F)F)nc3C)cc2)cc1 [Example 194] | 100 to 1000
3 | O=C(Nc1ccc(/C=C/c2ccc(NC(=O)[C@@H]3CCCN3C(=O)N3CCOCC3)cc2)cc1)[C@@H]1CCCN1C(=O)N1CCOCC1 [Example 287] | 0.1 to 90
4 | O=C(Nc1ccc(/C=C/c2ccc(NC(=O)[C@@H]3CCCN3C(=O)C3CCC3)cc2)cc1)[C@@H]1CCCN1C(=O)C1CCC1 [Example 44] | 0.1 to 90
5 | Cc1cc(C)c(S(=O)(=O)N2CCC[C@H]2C(=O)Nc2ccc(/C=C/c3ccc(NC(=O)[C@@H]4CCCN4S(=O)(=O)c4c(C)cc(C)cc4C)cc3)cc2)c(C)c1 [Example 279] | 100 to 1000
6 | O=C(NCc1ccccc1)Nc1ccc(/C=C/c2ccc(NC(=O)[C@@H]3CCCN3C(=O)Cc3ccccc3)cc2)cc1 [Example 250C] | 1000 to 10000
7 | CCC(=O)N1CCC[C@H]1C(=O)Nc1ccc(/C=C/c2ccc(NC(=O)[C@@H]3CCCN3C(=O)c3cccnc3)cc2)cc1 [Example 90] | 0.1 to 90
8 | CC(C)(C)O[C@@H]1C[C@@H](C(=O)Nc2ccc(/C=C/c3ccc(NC(=O)[C@@H]4C[C@@H](OC(C)(C)C)CN4C(=O)Cc4cccnc4)cc3)cc2)N(C(=O)Cc2cccnc2)C1 [Example 131] | 0.1 to 90
9 | CN(C)[C@H]1C[C@@H](C(=O)Nc2ccc(/C=C/c3ccc(NC(=O)[C@@H]4C[C@H](N(C)C)CN4C(=O)[C@H]4CCCO4)cc3)cc2)N(C(=O)[C@H]2CCCO2)C1 [Example 226] | 100 to 1000
10 | O=C(Nc1ccc(/C=C/c2ccc(NC(=O)[C@@H]3CCCN3C(=O)c3ccccc3)cc2)cc1)[C@@H]1CCCN1C(=O)c1ccccc1 [Example 61] | 100 to 1000
11 | CN(C(=O)[C@@H]1CCCN1C(=O)OCc1ccccc1)c1ccc(/C=C/c2ccc(N(C)C(=O)[C@@H]3CCCN3C(=O)OCc3ccccc3)cc2)cc1 [Example 244] | 1000 to 10000
12 | CCc1ccccc1C(=O)N1CCC[C@@H]1C(=O)Nc1ccc(/C=C/c2ccc(NC(=O)[C@@H]3CCCN3C(=O)c3ccccc3CC)cc2)cc1 [Example 124] | 1000 to 10000
13 | O=C(Nc1ccc(/C=C/c2ccc(NC(=O)[C@@H]3CCCN3C(=O)c3nccn3Cc3ccccc3)cc2)cc1)[C@@H]1CCCN1C(=O)c1nccn1Cc1ccccc1 [Example 179] | 1000 to 10000
14 | CC(C)(C)NC(=O)O[C@@H]1C[C@@H](C(=O)Nc2ccc(/C=C/c3ccc(NC(=O)[C@@H]4C[C@@H](O)CN4C(=O)OCc4ccccc4)cc3)cc2)N(C(=O)OCc2ccccc2)C1 [Example 247] | 1000 to 10000
15 | O=C(Nc1ccc(/C=C/c2ccc(NC(=O)[C@@H]3CCCN3C(=O)Cc3ccncc3)cc2)cc1)[C@@H]1CCCN1C(=O)Cc1ccncc1 [Example 43] | 100 to 1000
16 | CC(=O)N1C[C@H](OC(C)(C)C)C[C@H]1C(=O)Nc1ccc(/C=C/c2ccc(NC(=O)[C@@H]3C[C@@H](OC(C)(C)C)CN3C(=O)[C@H]3CCCO3)cc2)cc1 [Example 129] | 100 to 1000
17 | CC(C)(C)O[C@@H]1C[C@@H](C(=O)Nc2ccc(/C=C/c3ccc(NC(=O)[C@@H]4C[C@@H](OC(C)(C)C)CN4C(=O)Cc4ccccc4)cc3)cc2)N(C(=O)Cc2ccccc2)C1 [Example 295] | 1000 to 10000
18 | CCOc1ncccc1C(=O)N1CCC[C@H]1C(=O)Nc1ccc(/C=C/c2ccc(NC(=O)[C@@H]3CCCN3C(=O)c3cccnc3OCC)cc2)cc1 [Example 160] | 1000 to 10000
19 | O=C(Nc1ccc(/C=C/c2ccc(NC(=O)[C@@H]3CCCN3C(=O)C3CC3)cc2)cc1)[C@@H]1CCCN1C(=O)C1CC1 [Example 31] | 0.1 to 90

Row | Structure (SMILES) | EC50 [nM]
20 | O=C(Nc1ccc(/C=C/c2ccc(NC(=O)[C@@H]3C[C@@H](O)CN3C(=O)OCc3ccccc3)cc2)cc1)[C@@H]1CCCN1C(=O)Cc1ccccc1 [Example 275] | 0.1 to 90
21 | O=C(Nc1ccc(/C=C/c2ccc(NC(=O)[C@@H]3CCCN3C(=O)c3ccccc3NCc3ccccc3)cc2)cc1)[C@@H]1CCCN1C(=O)c1ccccc1NCc1ccccc1 [Example 141] | 1000 to 10000
22 | NC(=O)C1(C(=O)N2CCC[C@H]2C(=O)Nc2ccc(/C=C/c3ccc(NC(=O)[C@@H]4CCCN4C(=O)C4(C(N)=O)CC4)cc3)cc2)CC1 [Example 62] | 100 to 1000
23 | O=C(Nc1ccc(/C=C/c2ccc(NC(=O)[C@@H]3CCCN3C(=O)c3nccc4ccccc34)cc2)cc1)[C@@H]1CCCN1C(=O)c1nccc2ccccc12 [Example 300] | 0.1 to 90
24 | CC(C)(C)OC(=O)n1cc(C(=O)N2CCC[C@H]2C(=O)Nc2ccc(/C=C/c3ccc(NC(=O)[C@@H]4CCCN4C(=O)c4cn(C(=O)OC(C)(C)C)c5ccccc45)cc3)cc2)c2ccccc21 [Example 208] | 1000 to 10000
25 | Nc1ccc(/C=C/c2ccc(NC(=O)[C@@H]3CCCN3C(=O)Cc3ccccc3)cc2)cc1 [Example 250A] | 1000 to 10000
26 | CC(C)(C)C(=O)N1CCC[C@H]1C(=O)Nc1ccc(/C=C/c2ccc(NC(=O)[C@@H]3CCCN3C(=O)C(C)(C)C)cc2)cc1 [Example 53] | 0.1 to 90
27 | COc1ccc(OC)c(C(=O)N2CCC[C@H]2C(=O)Nc2ccc(/C=C/c3ccc(NC(=O)[C@@H]4CCCN4C(=O)c4cc(OC)ccc4OC)cc3)cc2)c1 [Example 145] | 100 to 1000
28 | Cc1cc(CC(=O)N2CCC[C@H]2C(=O)Nc2ccc(/C=C/c3ccc(NC(=O)[C@@H]4CCCN4C(=O)C(C)C)cc3)cc2)on1 [Example 98] | 0.1 to 90
29 | CC(=O)N1CCCC1C(=O)Nc1ccc(/C=C/c2ccc(NC(=O)[C@@H]3CCCN3C(=O)Cc3ccccc3)cc2)cc1 (some centres unmarked) [Example 251] | 0.1 to 90
30 | CN1CCC[C@H]1C(=O)N1CCC[C@H]1C(=O)Nc1ccc(/C=C/c2ccc(NC(=O)[C@@H]3CCCN3C(=O)[C@@H]3CCCN3C)cc2)cc1 [Example 157] | 1000 to 10000
31 | CC(C)(C)O[C@@H]1C[C@@H](C(=O)Nc2ccc(/C=C/c3ccc(NC(=O)[C@@H]4C[C@@H](OC(C)(C)C)CN4C(=O)OCc4ccccc4)cc3)cc2)N(C(=O)OCc2ccccc2)C1 [Example 294] | 100 to 1000
32 | CCCOc1ccccc1C(=O)N1C[C@@H](N(C)C)C[C@H]1C(=O)Nc1ccc(CCc2ccc(NC(=O)[C@@H]3C[C@H](N(C)C)CN3C(=O)c3ccccc3OCCC)cc2)cc1 [Example 224] | 1000 to 10000
33 | [N-]=[N+]=Nc1cccc(CC(=O)N2CCC[C@H]2C(=O)Nc2ccc(/C=C/c3ccc(NC(=O)[C@@H]4CCCN4C(=O)CCCC[C@@H]4SC[C@@H]5NC(=O)N[C@@H]54)cc3)cc2)c1 [Example 127] | 100 to 1000
34 | Cc1noc(C)c1C(=O)N1CCC[C@H]1C(=O)Nc1ccc(/C=C/c2ccc(NC(=O)[C@@H]3CCCN3C(=O)c3c(C)noc3C)cc2)cc1 [Example 202] | 100 to 1000
35 | O=C(Nc1ccc(/C=C/c2ccc(NC(=O)C3CC(=O)N(Cc4ccc(Cl)cc4)C3)cc2)cc1)C1CC(=O)N(Cc2ccc(Cl)cc2)C1 (centres unmarked) [Example 12] | 1000 to 10000
36 | O=C(Nc1ccc(/C=C/c2ccc(NC(=O)[C@@H]3CCCN3C(=O)Cc3ccccc3F)cc2)cc1)[C@@H]1CCCN1C(=O)Cc1ccccc1F [Example 106] | 0.1 to 90
37 | O=C(Nc1ccc(/C=C/c2ccc(NC(=O)[C@@H]3CCCN3C(=O)c3ccccc3-c3ccccc3)cc2)cc1)[C@@H]1CCCN1C(=O)c1ccccc1-c1ccccc1 [Example 166] | 1000 to 10000
38 | O=C(Nc1ccc(/C=C/c2ccc(NC(=O)[C@@H]3CCCN3C(=O)c3cccc4cc[nH]c34)cc2)cc1)[C@@H]1CCCN1C(=O)c1cccc2cc[nH]c12 [Example 149] | 100 to 1000
